{"source": "patent US4221811A", "about": "“Antifungal and/or antibacterial organotin compounds, and use” (priority 1977, dated 1980)", "key": {"fungi [1]": {"tested_on": "fungi", "assay": "Antifungal activity", "assay_type": "cell-based", "text": "(§1) Antifungal activity of organotin compounds. Minimal concentra-\n(§2) tion (mg/l) causing complete inhibition of visible growth (MIC;\n(§3) after three days). -Test medium: glucose-agar; pH~6.9-7.0."}, "P. fluorescens": {"tested_on": "P. fluorescens", "assay_type": "cell-based", "conditions": "P. fluorescens (Gram-neg.); after three days; peptone-glucose agar; pH ~ 6.9-7.0", "text": "(§4) Antibacterial activity of organotin compounds. Minimal concentration\n(§5) causing complete inhibition of visible growth (MIC; after three days).\n(§6) Test medium: peptone-glucose agar; pH ~ 6.9-7.0."}, "B. subtilis": {"tested_on": "B. subtilis", "assay_type": "cell-based", "conditions": "B. subtilis (Gram-pos.); after three days; peptone-glucose agar; pH ~ 6.9-7.0", "text": "as §4, §5, §6"}, "S. lactis": {"tested_on": "S. lactis", "assay_type": "cell-based", "conditions": "S. lactis (Gram-pos.); after three days; peptone-glucose agar; pH ~ 6.9-7.0", "text": "as §4, §5, §6"}, "E. coli": {"tested_on": "E. coli", "assay_type": "cell-based", "conditions": "E. coli (Gram-neg.); after three days; peptone-glucose agar; pH ~ 6.9-7.0", "text": "as §4, §5, §6"}, "bacteria": {"tested_on": "bacteria", "assay": "Antibacterial activity", "assay_type": "cell-based", "text": "as §4, §5, §6"}, "Aspergillus niger": {"tested_on": "Aspergillus niger", "assay_type": "cell-based", "conditions": "after three days, glucose-agar, pH~6.9-7.0", "text": "as §1, §2, §3"}, "Penicillium italicum": {"tested_on": "Penicillium italicum", "assay_type": "cell-based", "conditions": "after three days, glucose-agar, pH~6.9-7.0", "text": "as §1, §2, §3"}, "Cladosporium cucumerinum": {"tested_on": "Cladosporium cucumerinum", "assay_type": "cell-based", "conditions": "after three days, glucose-agar, pH~6.9-7.0", "text": "as §1, §2, §3"}, "Botrytis allii": {"tested_on": "Botrytis allii", "assay_type": "cell-based", "conditions": "after three days, glucose-agar, pH~6.9-7.0", "text": "as §1, §2, §3"}, "fungi [2]": {"tested_on": "fungi", "conditions": "literature citation (1); cited from earlier work"}, "physchem": {"assay": "physchem", "conditions": "water"}}, "data": [{"smiles": "CCC[CH2][Sn]([CH2]CCC)([CH2]CCC)[CH2]CCCBr", "note": "[Bu3 Sn(CH2)4 Br, (4-bromobutyl)tributyltin]", "values": [{"measurement": "antifungal activity (in words)", "setting": "fungi [1]", "result": "somewhat less effective, although they show a surprisingly effective antifungal activity"}]}, {"smiles": "CCC[CH2][Sn]([CH2]CCC)([CH2]CCC)[CH2]CC(=O)OC", "note": "[Bu3 Sn(CH2)2 COOMe, tributyl-(3-carbomethoxyethyl)tin]", "values": [{"measurement": "antifungal activity (in words)", "setting": "fungi [1]", "result": "high antifungal and antibacterial activity"}, {"measurement": "Minimal concentration causing complete inhibition of visible growth (MIC)", "setting": "P. fluorescens", "result": "> 1000", "unit": "µg/mL"}, {"measurement": "Minimal concentration causing complete inhibition of visible growth (MIC)", "setting": "B. subtilis", "result": 30, "unit": "µg/mL"}, {"measurement": "Minimal concentration causing complete inhibition of visible growth (MIC)", "setting": "S. lactis", "result": 30, "unit": "µg/mL"}, {"measurement": "Minimal concentration causing complete inhibition of visible growth (MIC)", "setting": "E. coli", "result": 100, "unit": "µg/mL"}, {"measurement": "antibacterial activity (in words)", "setting": "bacteria", "result": "high antifungal and antibacterial activity"}, {"measurement": "Minimal concentration causing complete inhibition of visible growth (MIC)", "setting": "Aspergillus niger", "result": 5, "unit": "µg/mL"}, {"measurement": "Minimal concentration causing complete inhibition of visible growth (MIC)", "setting": "Penicillium italicum", "result": 1, "unit": "µg/mL"}, {"measurement": "Minimal concentration causing complete inhibition of visible growth (MIC)", "setting": "Cladosporium cucumerinum", "result": 1, "unit": "µg/mL"}, {"measurement": "Minimal concentration causing complete inhibition of visible growth (MIC)", "setting": "Botrytis allii", "result": 0.5, "unit": "µg/mL"}]}, {"smiles": "CC[CH2][Sn]([CH2]CC)([CH2]CC)[CH2]CCNCCCN(C)C.Cl.Cl", "note": "[Pr3 Sn(CH2)3 NH(CH2)3 NMe2 . 2]", "values": [{"measurement": "Minimal concentration causing complete inhibition of visible growth (MIC)", "setting": "P. fluorescens", "result": 10, "unit": "µg/mL"}, {"measurement": "Minimal concentration causing complete inhibition of visible growth (MIC)", "setting": "B. subtilis", "result": 10, "unit": "µg/mL"}, {"measurement": "Minimal concentration causing complete inhibition of visible growth (MIC)", "setting": "S. lactis", "result": 10, "unit": "µg/mL"}, {"measurement": "Minimal concentration causing complete inhibition of visible growth (MIC)", "setting": "E. coli", "result": 10, "unit": "µg/mL"}, {"measurement": "solubility in water", "result": 50, "unit": "%"}, {"measurement": "Minimal concentration causing complete inhibition of visible growth (MIC)", "setting": "Aspergillus niger", "result": 20, "unit": "µg/mL"}, {"measurement": "Minimal concentration causing complete inhibition of visible growth (MIC)", "setting": "Penicillium italicum", "result": 10, "unit": "µg/mL"}, {"measurement": "Minimal concentration causing complete inhibition of visible growth (MIC)", "setting": "Cladosporium cucumerinum", "result": 20, "unit": "µg/mL"}, {"measurement": "Minimal concentration causing complete inhibition of visible growth (MIC)", "setting": "Botrytis allii", "result": "≤ 10", "unit": "µg/mL"}]}, {"smiles": "CCC[CH2][Sn]([CH3])([Br])[CH2]CCC", "note": "[MeBu2 SnBr]", "values": [{"measurement": "antifungal activity, MIC values", "setting": "fungi [2]", "result": "about 10 mg/l"}]}, {"smiles": "CCC[CH2][Sn]([CH2]CCC)([CH2]CCC)[CH2]Cc1ccncc1", "note": "[tributyl-[3-(4-pyridyl)ethyl]tin]", "values": [{"measurement": "antifungal activity (in words)", "setting": "fungi [1]", "result": "high antifungal activity"}]}, {"smiles": "CCC[CH2][Sn]([CH2]CCC)([CH2]CCC)[CH2]CCBr", "note": "[Bu3 Sn(CH2)3 Br, (3-bromopropyl)tributyltin]", "values": [{"measurement": "antifungal activity (in words)", "setting": "fungi [1]", "result": "somewhat less effective, although they show a surprisingly effective antifungal activity"}]}, {"smiles": "CCC[CH2][Sn]([Br])([CH2]CCC)[CH2]CCC", "note": "[Bu3 SnBr]", "values": [{"measurement": "antifungal activity, MIC values", "setting": "fungi [2]", "result": "about 10 mg/l"}]}, {"smiles": "CCC[CH2][Sn]([CH3])([Br])[CH2]CC", "note": "(stereo not shown) [MePrBuSnBr]", "values": [{"measurement": "antifungal activity, MIC values", "setting": "fungi [2]", "result": "about 10 mg/l"}]}, {"smiles": "CC[CH2][Sn]([CH2]CC)([CH2]CC)[CH2]Cc1ccncc1", "note": "[tripropyl-[3-(4-pyridyl)ethyl]tin]", "values": [{"measurement": "antifungal activity (in words)", "setting": "fungi [1]", "result": "high antifungal as well as antibacterial activity"}, {"measurement": "antibacterial activity (in words)", "setting": "bacteria", "result": "high antifungal as well as antibacterial activity"}]}, {"smiles": "CCC[CH2][Sn]([CH2]CCC)([CH2]CCC)[CH2]CCN(C)C", "note": "[Bu3 Sn(CH2)3 NMe2, (3-dimethylaminopropyl)tributyltin]", "values": [{"measurement": "solubility", "setting": "physchem", "result": "~20", "unit": "mg/mL"}]}, {"smiles": "CCC[CH2][Sn]([CH3])([CH2]CCC)[CH2]CCNCCCN(C)C.Cl.Cl", "note": "[MeBu2 Sn(CH2)3 NH(CH2)3 NMe2 . 2]", "values": [{"measurement": "Minimal concentration causing complete inhibition of visible growth (MIC)", "setting": "P. fluorescens", "result": 3, "unit": "µg/mL"}, {"measurement": "Minimal concentration causing complete inhibition of visible growth (MIC)", "setting": "B. subtilis", "result": 3, "unit": "µg/mL"}, {"measurement": "Minimal concentration causing complete inhibition of visible growth (MIC)", "setting": "S. lactis", "result": 3, "unit": "µg/mL"}, {"measurement": "Minimal concentration causing complete inhibition of visible growth (MIC)", "setting": "E. coli", "result": 3, "unit": "µg/mL"}, {"measurement": "solubility in water", "result": 50, "unit": "%"}, {"measurement": "Minimal concentration causing complete inhibition of visible growth (MIC)", "setting": "Aspergillus niger", "result": 100, "unit": "µg/mL"}, {"measurement": "Minimal concentration causing complete inhibition of visible growth (MIC)", "setting": "Penicillium italicum", "result": "≤ 10", "unit": "µg/mL"}, {"measurement": "Minimal concentration causing complete inhibition of visible growth (MIC)", "setting": "Cladosporium cucumerinum", "result": 20, "unit": "µg/mL"}, {"measurement": "Minimal concentration causing complete inhibition of visible growth (MIC)", "setting": "Botrytis allii", "result": "≤ 10", "unit": "µg/mL"}]}, {"smiles": "CCC[CH2][Sn]([CH3])([Br])[CH2]CC[N+](C)(C)C.[I-]", "note": "(stereo not shown) [MeBuBrSn(CH2)3 NMe3 I, reference compound]", "values": [{"measurement": "antifungal activity, MIC", "setting": "fungi [1]", "result": "> 500", "unit": "µg/mL"}, {"measurement": "Minimal concentration causing complete inhibition of visible growth (MIC)", "setting": "Aspergillus niger", "result": "> 500", "unit": "µg/mL"}, {"measurement": "Minimal concentration causing complete inhibition of visible growth (MIC)", "setting": "Penicillium italicum", "result": "> 500", "unit": "µg/mL"}, {"measurement": "Minimal concentration causing complete inhibition of visible growth (MIC)", "setting": "Cladosporium cucumerinum", "result": "> 500", "unit": "µg/mL"}, {"measurement": "Minimal concentration causing complete inhibition of visible growth (MIC)", "setting": "Botrytis allii", "result": "> 500", "unit": "µg/mL"}]}, {"smiles": "CCC[CH2][Sn]([CH2]CCC)([CH2]CCC)[O][Sn]([CH2]CCC)([CH2]CCC)[CH2]CCC", "note": "[bis(tributyltin)oxide, reference compound]", "values": [{"measurement": "solubility in water", "result": 0.003, "unit": "%"}]}]}
